Assay results as given in patent US20120058499A1, “Bioluminescent Detection of Protease Activity” (priority 2010, published 2012).

How the values were obtained:
Test in all cases: Platform comparison of DUB substrates, signal to background
Type in all cases: biochemical
Details in all cases: DUB 10 nM; signal at 30 minutes; Ub-LUC 100 nM, DUB-Glo substrate 20 μM, Ub-AMC/Ub-rho 250 nM
JosD2 = target: T1, JosD2 (Homo sapiens, UniProt Q8TAC2)
T1 sequence (Q8TAC2 1-188): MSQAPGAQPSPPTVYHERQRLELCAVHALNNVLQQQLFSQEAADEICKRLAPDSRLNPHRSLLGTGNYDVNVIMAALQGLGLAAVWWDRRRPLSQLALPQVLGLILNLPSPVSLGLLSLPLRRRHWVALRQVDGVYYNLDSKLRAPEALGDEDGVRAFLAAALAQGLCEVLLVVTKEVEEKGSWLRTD
Procedure: (§1) For Ub-AMC and Ub-Rhodamine110, all enzymes were diluted into 50 mM Tris, pH 8.0, 5 mM DTT, 0.05% CHAPS to a final concentration of 10 nM. […] Either Ub-AMC or Ub-Rhodamine110 (final reaction concentration equal to 250 nM) were diluted into 50 mM Tris, pH 8.0, 5 mM DTT, 0.05% (w/v) CHAPS. […] For Ub-Rhodamine110, fluorescence was monitored with filters corresponding to excitation at 485 nm and emission at 531 nm.

AMSH = target: T2, AMSH (Homo sapiens, UniProt O95630)
T2 sequence (O95630 1-424): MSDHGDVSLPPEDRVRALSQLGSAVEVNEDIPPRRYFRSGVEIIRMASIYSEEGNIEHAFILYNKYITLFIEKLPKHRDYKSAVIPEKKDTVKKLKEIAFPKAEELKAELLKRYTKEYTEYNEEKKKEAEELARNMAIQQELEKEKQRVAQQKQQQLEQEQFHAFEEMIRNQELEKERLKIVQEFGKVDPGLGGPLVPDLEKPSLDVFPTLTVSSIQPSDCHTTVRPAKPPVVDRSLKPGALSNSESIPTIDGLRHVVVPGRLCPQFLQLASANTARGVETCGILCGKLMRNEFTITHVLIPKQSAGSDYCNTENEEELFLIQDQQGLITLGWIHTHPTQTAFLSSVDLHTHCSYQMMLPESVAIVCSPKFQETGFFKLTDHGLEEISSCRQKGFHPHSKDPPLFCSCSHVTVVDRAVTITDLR
Procedure: as §1

Ataxin3 = Ataxin3 (Homo sapiens, UniProt P54252)
Procedure: as §1

Ataxin3-like = target: T3, Ataxin3-like (Homo sapiens, UniProt Q9H3M9)
T3 sequence (Q9H3M9 1-355): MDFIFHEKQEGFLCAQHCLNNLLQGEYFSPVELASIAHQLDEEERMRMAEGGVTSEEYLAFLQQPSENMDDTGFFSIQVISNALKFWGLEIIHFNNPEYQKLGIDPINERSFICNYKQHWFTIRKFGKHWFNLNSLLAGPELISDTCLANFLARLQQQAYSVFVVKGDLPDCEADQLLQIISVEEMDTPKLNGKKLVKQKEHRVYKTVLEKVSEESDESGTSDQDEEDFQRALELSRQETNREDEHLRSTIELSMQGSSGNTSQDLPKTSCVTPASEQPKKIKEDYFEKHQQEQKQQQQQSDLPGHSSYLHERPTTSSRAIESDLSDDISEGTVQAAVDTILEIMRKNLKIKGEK
Procedure: as §1

Ataxin3, sequence (P54252 whole entry, species assumed): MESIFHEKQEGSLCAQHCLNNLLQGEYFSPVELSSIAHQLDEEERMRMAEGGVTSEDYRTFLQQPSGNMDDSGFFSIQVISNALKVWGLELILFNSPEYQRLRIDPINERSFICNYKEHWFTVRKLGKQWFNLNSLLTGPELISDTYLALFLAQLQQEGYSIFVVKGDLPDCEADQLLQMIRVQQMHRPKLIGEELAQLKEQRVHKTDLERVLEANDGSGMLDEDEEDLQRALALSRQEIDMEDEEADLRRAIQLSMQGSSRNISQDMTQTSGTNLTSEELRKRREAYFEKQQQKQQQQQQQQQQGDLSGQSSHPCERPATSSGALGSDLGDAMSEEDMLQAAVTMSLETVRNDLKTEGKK

Row | Substance | Signal to Background value (JosD2) | Signal to Background value (AMSH) | Signal to Background value (Ataxin3) | Signal to Background value (Ataxin3-like)
1 | Ub(1-76)-aminoluciferin [Ub-LUC] | 760 | 16 | 4.0 | 120
2 | Z-Arg-Leu-Arg-Gly-Gly (SEQ ID NO: 1)-amino-luciferin [DUB-glo ™] | 2.1 | 1.4 | 1.3 | 1.5
